Test results taken from PubChem BioAssay (NCI).
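Dose response: 5 concentrations. Exposure: 48 h. Format: 96-well plates. Endpoint: linear interpolation; highest concentration if not reached. Abbreviation: GI50, concentration required for 50% inhibition of growth. Definition used: TGI = concentration required for complete inhibition of growth.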

Tests used:
Experiment in all cases: NCI anticancer screen, dose series, 48 h
ACHN renal = tested on: ACHN renal
EKVX NSCLC = tested on: EKVX NSCLC
HCT-116 colon = tested on: HCT-116 colon
HOP-92 NSCLC = tested on: HOP-92 NSCLC
SK-MEL-2 melanoma = tested on: SK-MEL-2 melanoma
SK-MEL-28 melanoma = tested on: SK-MEL-28 melanoma
SN12C renal = tested on: SN12C renal
U251 CNS = tested on: U251 CNS
SK-MEL-5 melanoma = tested on: SK-MEL-5 melanoma
HS 578T breast = tested on: HS 578T breast

| Structure (SMILES) | TGI (ACHN renal) [µM] | TGI (EKVX NSCLC) [µM] | TGI (HCT-116 colon) [µM] | TGI (HOP-92 NSCLC) [µM] | TGI (SK-MEL-2 melanoma) [µM] | TGI (SK-MEL-28 melanoma) [µM] | TGI (SN12C renal) [µM] | TGI (U251 CNS) [µM] | GI50 (ACHN renal) [µM] | GI50 (HCT-116 colon) [µM] | GI50 (SK-MEL-2 melanoma) [µM] | GI50 (SK-MEL-28 melanoma) [µM] | TGI (SK-MEL-5 melanoma) [µM] | GI50 (SN12C renal) [µM] | GI50 (U251 CNS) [µM] | GI50 (EKVX NSCLC) [µM] | GI50 (HOP-92 NSCLC) [µM] | GI50 (SK-MEL-5 melanoma) [µM] | GI50 (HS 578T breast) [µM] | TGI (HS 578T breast) [µM] |
| --- | --- | --- | --- | --- | --- | --- | --- | --- | --- | --- | --- | --- | --- | --- | --- | --- | --- | --- | --- | --- |
| N#CC(C(=O)/C(=N\NC(N)=O)C(C#N)c1ccccc1)c1ccccc1 (centres undefined) | > 100 | > 100 | > 100 | > 100 | > 100 | > 100 | > 100 | > 100 |  |  |  |  |  |  |  |  |  |  |  |  |
| N/N=C(/Cc1nc2ccc(C(=O)c3ccccc3)cc2[nH]c1=O)C(=O)Nc1ccc([N+](=O)[O-])cc1[N+](=O)[O-] | > 100 | > 100 | > 100 |  | > 100 | > 100 | > 100 | > 100 | > 100 | > 100 | > 100 | > 100 | > 100 | > 100 | > 100 |  |  |  |  |  |
| c1ccc(CNCCN(CCNCc2ccccn2)Cc2ccc3ccccc3c2)nc1 | 2.43 | 7.58 | 8.36 | 4.64 |  | 3.36 | 11.1 | 7.39 | 1.05 | 2.37 |  | 1.75 | 3.16 | 3.21 | 2.47 | 1.71 | 1.79 | 1.76 |  |  |
| O=C1O/C(=C/c2ccccc2)C(c2ccccc2)=C1O | > 100 | > 100 | > 100 | > 100 | 31.6 | > 100 | > 100 | 82.7 |  |  |  |  | 80.9 |  |  |  |  |  |  |  |
| COC(=O)C1C(=O)O[C@@H](c2cc(OC)c(OC)cc2OC)C1C(=O)OC (mixture of isomers) | > 100 | > 100 | > 100 | > 100 |  | > 100 | > 100 | > 100 |  |  |  |  | > 100 |  |  |  |  |  |  |  |
| COC(=O)C1=CC2C=CC(C1C(=O)OC)C1C(C(=O)OC)=C(C(=O)OC)C(C(=O)OC)=C(C(=O)OC)C21OC (centres undefined) | > 100 | > 100 | > 100 | > 100 | > 100 | > 100 | > 100 | > 100 |  |  |  |  | > 100 |  |  |  |  |  |  |  |
| CC(=O)[CH-]C(=O)c1ccccc1.CC(=O)[CH-]C(=O)c1ccccc1.CC(=O)[CH-]C(=O)c1ccccc1.[Nd+3].[OH3+] | > 100 | > 100 | > 100 | 77.4 | > 100 | > 100 | > 100 | > 100 | 48.6 | 46.7 | 25.9 | 66.9 | > 100 | 42.3 | 37 | 60.9 | 29.5 | 38.1 |  |  |
| CN(/N=C/c1ccnc2ccccc12)c1c([N+](=O)[O-])cc([N+](=O)[O-])cc1[N+](=O)[O-] | > 100 | > 100 |  | > 100 | 89.1 | > 100 | > 100 | > 100 |  |  |  |  | > 100 |  |  |  |  |  |  |  |
| COc1cc(/C=N/N=C(\N)NO)c(Cl)cc1O | > 100 | > 100 | > 100 | 73.2 | > 100 | > 100 | > 100 | > 100 |  |  |  |  | > 100 |  |  |  |  |  |  |  |
| CCNC(=O)Oc1ccc(/C(=C(/C)Cc2ccc(OC)cc2)c2ccc(OCCN(CC)CC)cc2)cc1 | 3.18 | 5.03 | 3.11 |  | 3.62 | 3.53 | 3.82 | 3.2 | 1.69 | 1.57 | 1.85 | 1.76 | 2.93 | 1.93 | 1.73 | 1.7 |  | 1.55 | 2.18 | 5.16 |
| Cc1cc(C)c(-c2noc(-c3ccc(Cl)cc3)c2C2=NCCCN2)c(C)c1 | > 100 | > 100 | > 100 |  | 49.9 | 29.9 | 82.6 | 25.8 |  |  |  |  | 24.2 |  |  |  |  |  |  |  |
| Cc1cc(C)c(-c2c(N)cc(Br)cc2Br)c(N)c1 | 22.8 | 26.3 | 15.6 | 9.4 | 14.1 | 21 | 21.9 | 17 | 10 | 4.35 | 3.95 | 6.25 | 13.9 | 7.41 | 4.73 | 5.15 | 2.77 | 3.82 |  |  |
| Clc1cccc(-c2nnc(-c3nn(-c4ccccc4)c4nc5ccccc5nc34)o2)c1 | > 100 | > 100 | > 100 |  | > 100 | > 100 | > 100 | > 100 |  |  |  |  | > 100 |  |  |  |  |  |  |  |
| NC1=NN(c2ccccc2)C(=O)C1C(=O)C(=O)Nc1ccc(Cl)c(Cl)c1 (centres undefined) | > 100 | > 100 | > 100 | > 100 | > 100 | > 100 | > 100 | > 100 |  |  |  |  | > 100 |  |  |  |  |  |  |  |
| CNS(=O)(=O)NNS(=O)(=O)c1ccc(OC)cc1 | > 100 | > 100 | > 100 |  | > 100 |  |  | > 100 |  |  |  |  | > 100 |  |  |  |  |  |  |  |
| O=C(/C=C\c1cccc2ccccc12)c1ccc(Cl)cc1Cl | 32.6 | > 100 | 33.6 |  |  | 38.4 | > 100 | 30.7 |  |  |  |  | > 100 |  |  |  |  |  |  |  |
| COc1ccc(OC)c(/C=N/N=C(\N)NO)c1 | 81.4 | > 100 | > 100 | 83.6 | > 100 | > 100 | > 100 | > 100 |  |  |  |  |  |  |  |  |  |  |  |  |
| O=C1c2ccccc2C2CCC1c1ccccc12 (centres undefined) | > 100 | > 100 | 46.4 | 72.2 | 94 | > 100 | > 100 | > 100 |  |  |  |  | 34.1 |  |  |  |  |  |  |  |
| COC(=O)[C@@]12CC(C(C)C)[C@H]3CC(C(=O)C=C1OC)[C@H]32 (some centres undefined) | > 100 | > 100 | > 100 | > 100 | > 100 | > 100 | > 100 | > 100 |  |  |  |  | > 100 |  |  |  |  |  |  |  |
